Test results: ChEMBL document CHEMBL5303573, “Mapping human microbiome drug metabolism by gut bacteria and their genes” (Nature, 2019)

Tests used:
[1] = The drug is tested on Dorea formicigenerans strain: ATCC27755 for biotransformation. The drug concentrations were measured before and after a 12-h incubation by liquid-chromatography-coupled mass spectrometry (LC–MS); details: 2 µM
[2] = The drug is tested on Bacteroides coprophilus strain: DSM18228 for biotransformation. The drug concentrations were measured before and after a 12-h incubation by liquid-chromatography-coupled mass spectrometry (LC–MS); details: 2 µM
[3] = The drug is tested on Bacteroides ovatus strain: ATCC8483 for biotransformation. The drug concentrations were measured before and after a 12-h incubation by liquid-chromatography-coupled mass spectrometry (LC–MS); details: 2 µM
[4] = segatella copri, 12 h, 2 µM
Description: The drug is tested on Prevotella copri strain: DSM18205 for biotransformation. The drug concentrations were measured before and after a 12-h incubation by liquid-chromatography-coupled mass spectrometry (LC–MS)

[5] = bacteroides fragilis, 12 h, 2 µM
Description: The drug is tested on Bacteroides fragilis strain: NCTC 9343 for biotransformation. The drug concentrations were measured before and after a 12-h incubation by liquid-chromatography-coupled mass spectrometry (LC–MS)

[6] = roseburia intestinalis, 12 h, 2 µM
Description: The drug is tested on Roseburia intestinalis strain: L1-82 for biotransformation. The drug concentrations were measured before and after a 12-h incubation by liquid-chromatography-coupled mass spectrometry (LC–MS)

[7] = The drug is tested on Bacteroides sp. WH2 strain: WH2 for biotransformation. The drug concentrations were measured before and after a 12-h incubation by liquid-chromatography-coupled mass spectrometry (LC–MS); details: bacteroides sp. wh2, 12 h, 2 µM
[8] = bacteroides thetaiotaomicron, 12 h, 2 µM
Description: The drug is tested on Bacteroides thetaiotaomicron strain: 3731 for biotransformation. The drug concentrations were measured before and after a 12-h incubation by liquid-chromatography-coupled mass spectrometry (LC–MS)

[9] = bacteroides fragilis, 12 h, 2 µM; remark: listed apart in the source
Description: The drug is tested on Bacteroides fragilis strain: DS-208 for biotransformation. The drug concentrations were measured before and after a 12-h incubation by liquid-chromatography-coupled mass spectrometry (LC–MS)

[10] = The drug is tested on Eubacterium hallii strain: DSM3353 for biotransformation. The drug concentrations were measured before and after a 12-h incubation by liquid-chromatography-coupled mass spectrometry (LC–MS); details: anaerobutyricum hallii, 2 µM
[11] = The drug is tested on Clostridium sp. strain: fecal isolate for biotransformation. The drug concentrations were measured before and after a 12-h incubation by liquid-chromatography-coupled mass spectrometry (LC–MS); details: 2 µM
[12] = The drug is tested on Bacteroides finegoldii strain: DSM17565 for biotransformation. The drug concentrations were measured before and after a 12-h incubation by liquid-chromatography-coupled mass spectrometry (LC–MS); details: 2 µM
[13] = bacteroides eggerthii, 12 h, 2 µM
Description: The drug is tested on Bacteroides eggerthii strain: DSM20697 for biotransformation. The drug concentrations were measured before and after a 12-h incubation by liquid-chromatography-coupled mass spectrometry (LC–MS)

[14] = The drug is tested on Odoribacter splanchnicus strain: fecal isolate for biotransformation. The drug concentrations were measured before and after a 12-h incubation by liquid-chromatography-coupled mass spectrometry (LC–MS); details: 2 µM
[15] = The drug is tested on Bacteroides fragilis strain: HMW610 for biotransformation. The drug concentrations were measured before and after a 12-h incubation by liquid-chromatography-coupled mass spectrometry (LC–MS); details: 2 µM
[16] = bifidobacterium adolescentis, 12 h, 2 µM
Description: The drug is tested on Bifidobacterium adolescentis strain: ATCC 15703 for biotransformation. The drug concentrations were measured before and after a 12-h incubation by liquid-chromatography-coupled mass spectrometry (LC–MS)

[17] = The drug is tested on Anaerococcus hydrogenalis strain: DSM7454 for biotransformation. The drug concentrations were measured before and after a 12-h incubation by liquid-chromatography-coupled mass spectrometry (LC–MS); details: 2 µM
[18] = akkermansia muciniphila, 12 h, 2 µM
Description: The drug is tested on Akkermansia muciniphila strain: ATCC BAA-835 for biotransformation. The drug concentrations were measured before and after a 12-h incubation by liquid-chromatography-coupled mass spectrometry (LC–MS)

[19] = The drug is tested on Clostridium sporogenes strain: ATCC15579 for biotransformation. The drug concentrations were measured before and after a 12-h incubation by liquid-chromatography-coupled mass spectrometry (LC–MS); details: 2 µM

| Bacterial Biotransformation [1] | Bacterial Biotransformation [2] | Bacterial Biotransformation [3] | Bacterial Biotransformation [5] | Bacterial Biotransformation [6] | Bacterial Biotransformation [7] | Bacterial Biotransformation [8] | Bacterial Biotransformation [9] | Bacterial Biotransformation [10] | Bacterial Biotransformation [11] | Bacterial Biotransformation [13] | Bacterial Biotransformation [14] | Bacterial Biotransformation [15] | Bacterial Biotransformation [17] | Bacterial Biotransformation [18] | SMILES | Bacterial Biotransformation [4] | Bacterial Biotransformation [12] | Bacterial Biotransformation [16] | Bacterial Biotransformation [19] |
| --- | --- | --- | --- | --- | --- | --- | --- | --- | --- | --- | --- | --- | --- | --- | --- | --- | --- | --- | --- |
| Compound NOT metabolized | Compound NOT metabolized | Compound NOT metabolized |  | Compound NOT metabolized | Compound NOT metabolized | Compound NOT metabolized | Compound NOT metabolized | Compound NOT metabolized | Compound NOT metabolized | Compound NOT metabolized |  | Compound NOT metabolized | Compound NOT metabolized | Compound NOT metabolized | Nc1nnc(-c2cccc(Cl)c2Cl)c(N)n1 [LAMOTRIGINE] | Compound NOT metabolized | Compound NOT metabolized | Compound NOT metabolized |  |
| Compound NOT metabolized | Compound NOT metabolized | Compound NOT metabolized | Compound metabolized | Compound NOT metabolized | Compound NOT metabolized | Compound NOT metabolized | Compound metabolized | Compound NOT metabolized | Compound metabolized | Compound metabolized | Compound metabolized | Compound metabolized | Compound NOT metabolized | Compound NOT metabolized | COC(=O)Nc1nc2ccc(C(=O)c3ccccc3)cc2[nH]1 [MEBENDAZOLE] |  |  |  |  |
| Compound NOT metabolized | Compound NOT metabolized | Compound NOT metabolized | Compound NOT metabolized |  | Compound NOT metabolized | Compound NOT metabolized | Compound NOT metabolized | Compound NOT metabolized | Compound metabolized | Compound NOT metabolized | Compound NOT metabolized |  | Compound NOT metabolized |  | CN1C(=O)CC(C)(c2ccccc2)C1=O (stereo not given) [METHSUXIMIDE] | Compound NOT metabolized | Compound NOT metabolized | Compound NOT metabolized | Compound NOT metabolized |
| Compound NOT metabolized | Compound NOT metabolized |  | Compound NOT metabolized | Compound NOT metabolized |  | Compound NOT metabolized | Compound NOT metabolized | Compound NOT metabolized | Compound NOT metabolized | Compound NOT metabolized | Compound NOT metabolized | Compound metabolized | Compound NOT metabolized | Compound NOT metabolized | COc1ccc2cc([C@H](C)C(=O)O)ccc2c1 [NAPROXEN] |  |  |  |  |
| Compound NOT metabolized | Compound NOT metabolized | Compound NOT metabolized | Compound NOT metabolized | Compound NOT metabolized | Compound NOT metabolized | Compound NOT metabolized | Compound NOT metabolized | Compound NOT metabolized | Compound NOT metabolized | Compound NOT metabolized | Compound NOT metabolized |  |  | Compound NOT metabolized | CO[C@]12C[C@@H](COC(=O)c3cncc(Br)c3)CN(C)[C@@H]1Cc1cn(C)c3cccc2c13 [NICERGOLINE] | Compound NOT metabolized | Compound NOT metabolized | Compound NOT metabolized | Compound NOT metabolized |
| Compound metabolized |  | Compound NOT metabolized |  | Compound NOT metabolized | Compound NOT metabolized | Compound NOT metabolized | Compound NOT metabolized | Compound NOT metabolized | Compound metabolized |  | Compound metabolized | Compound metabolized | Compound NOT metabolized |  | CCN(CC)CC#CCOC(=O)C(O)(c1ccccc1)C1CCCCC1.Cl (stereo not given) [OXYBUTYNIN CHLORIDE] |  |  | Compound NOT metabolized | Compound NOT metabolized |

| SMILES | Bacterial Biotransformation [1] | Bacterial Biotransformation [2] | Bacterial Biotransformation [3] | Bacterial Biotransformation [5] | Bacterial Biotransformation [6] | Bacterial Biotransformation [7] | Bacterial Biotransformation [8] | Bacterial Biotransformation [9] | Bacterial Biotransformation [10] | Bacterial Biotransformation [11] | Bacterial Biotransformation [13] | Bacterial Biotransformation [14] | Bacterial Biotransformation [15] | Bacterial Biotransformation [17] | Bacterial Biotransformation [18] | Bacterial Biotransformation [4] | Bacterial Biotransformation [12] | Bacterial Biotransformation [16] | Bacterial Biotransformation [19] |
| --- | --- | --- | --- | --- | --- | --- | --- | --- | --- | --- | --- | --- | --- | --- | --- | --- | --- | --- | --- |
| COc1cc2nc(N3CCN(C(=O)C4COc5ccccc5O4)CC3)nc(N)c2cc1OC.CS(=O)(=O)O (stereo not given) [DOXAZOSIN MESYLATE] | Compound NOT metabolized | Compound NOT metabolized | Compound NOT metabolized | Compound NOT metabolized | Compound NOT metabolized | Compound NOT metabolized | Compound NOT metabolized | Compound NOT metabolized | Compound NOT metabolized | Compound metabolized | Compound NOT metabolized | Compound NOT metabolized | Compound NOT metabolized | Compound NOT metabolized | Compound NOT metabolized | Compound metabolized | Compound NOT metabolized | Compound NOT metabolized |  |
| CC(C)c1c(CN(C)C(C)Cc2ccccc2)n(C)n(-c2ccccc2)c1=O (stereo not given) [FAMPROFAZONE] | Compound metabolized | Compound metabolized | Compound metabolized | Compound metabolized | Compound NOT metabolized | Compound metabolized | Compound metabolized | Compound metabolized | Compound NOT metabolized |  | Compound metabolized | Compound metabolized | Compound metabolized | Compound metabolized | Compound metabolized | Compound metabolized | Compound metabolized | Compound NOT metabolized | Compound NOT metabolized |
| CN(C)C(=O)Oc1cccc([N+](C)(C)C)c1.[Br-] [NEOSTIGMINE BROMIDE] | Compound NOT metabolized | Compound metabolized | Compound metabolized | Compound metabolized | Compound NOT metabolized | Compound NOT metabolized | Compound metabolized | Compound metabolized |  | Compound NOT metabolized |  | Compound NOT metabolized |  | Compound NOT metabolized |  |  | Compound NOT metabolized | Compound NOT metabolized | Compound NOT metabolized |
| COc1ccc(Cc2nccc3cc(OC)c(OC)cc23)cc1OC [PAPAVERINE] | Compound NOT metabolized | Compound NOT metabolized | Compound NOT metabolized |  | Compound NOT metabolized | Compound NOT metabolized | Compound NOT metabolized | Compound NOT metabolized | Compound NOT metabolized | Compound NOT metabolized | Compound NOT metabolized |  |  | Compound NOT metabolized |  | Compound NOT metabolized | Compound NOT metabolized | Compound NOT metabolized | Compound NOT metabolized |
